This passage reports IC50 and Ki results from patent publication US11008340B2, “Modulators of ROR-gamma” (Vitae Pharmaceuticals, LLC, priority 2015, dated 2021).

The target in assay [1] is T1, full-length RORγt in Jurkat cells (Homo sapiens, UniProt P51449).
T1 construct: transcriptional activity of the full-length RORγt in Jurkat cells; host or cells: Jurkat cells (ATCC TIB-152)
T1 sequence (P51449 1-497 isoform P51449-2): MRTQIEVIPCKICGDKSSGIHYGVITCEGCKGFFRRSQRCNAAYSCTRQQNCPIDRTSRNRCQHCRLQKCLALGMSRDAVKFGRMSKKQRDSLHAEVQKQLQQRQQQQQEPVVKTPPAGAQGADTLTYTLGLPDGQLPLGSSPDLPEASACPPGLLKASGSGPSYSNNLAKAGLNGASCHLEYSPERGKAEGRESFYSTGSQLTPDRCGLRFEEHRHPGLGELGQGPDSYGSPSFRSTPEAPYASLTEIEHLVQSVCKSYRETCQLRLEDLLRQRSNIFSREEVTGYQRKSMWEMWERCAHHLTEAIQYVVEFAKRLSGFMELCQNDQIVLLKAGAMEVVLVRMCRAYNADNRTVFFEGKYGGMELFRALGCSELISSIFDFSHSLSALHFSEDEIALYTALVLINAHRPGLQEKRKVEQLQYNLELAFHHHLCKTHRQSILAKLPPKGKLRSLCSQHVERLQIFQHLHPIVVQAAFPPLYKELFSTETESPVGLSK
The assay can be described thus: RORγt 5×RORE Assay in Jurkat Cells (Assay 2). It is filed as cell-based. The note with it: 5×RORE luciferase reporter, read-out: Avg ROR γt/5x IC50. The essentials:
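Inverse agonism measured as reduced NanoGlo signal from secreted NanoLuc in conditioned supernatant after 16-18 hrs compound exposure (37° C, 0.1% DMSO). Reporter: 5×RORE-driven secNluc, co-transfected with full-length RORγt into Jurkat cells cultured in delipidated-FBS, phenol-red-free RPMI.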

For assay [2], the target named is T2, recombinant RORγ Ligand Binding Domain (LBD) protein (Homo sapiens, UniProt P51449).
T2 construct: 6×His; GST
T2 sequence (P51449 269-508 limits assumed): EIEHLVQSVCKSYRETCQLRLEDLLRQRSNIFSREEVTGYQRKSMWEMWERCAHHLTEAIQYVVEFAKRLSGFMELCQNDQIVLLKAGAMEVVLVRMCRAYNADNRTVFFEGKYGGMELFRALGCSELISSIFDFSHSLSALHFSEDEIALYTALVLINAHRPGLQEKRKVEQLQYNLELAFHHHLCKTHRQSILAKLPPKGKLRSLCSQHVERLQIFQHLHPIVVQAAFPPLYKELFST
Description: Radio-Ligand RORγ Binding Assay (Assay 1). As to conditions: radio-ligand competition, RORγ LBD, read-out: Avg ROR Bind Ki. The essentials: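 Cell-free SPA competition between compound and 25-hydroxy[26,27-^3H]-cholesterol for 6×His-GST-tagged RORγ LBD in 50 mM HEPES pH 7.4 with NaCl, MgCl2, glycerol, CHAPS, octylglucoside and DTT. Mix was shaken 20 min, held 10 min at rt, then read after poly-Lys YSi beads. IC50 came from a four-parameter fit, and Ki from radioligand KD.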

Where [3] appears, read: 25-hydroxy [26,27-3H]-cholesterol.
[4] abbreviates: head without unit (Tables 15, 17).

What is called Ki is a measure of affinity in units of concentration, obtained from inhibition or displacement.

Read-outs that look alike come from different tables or passages of the source. Bounds are passed on as bounds.

In the case of `CCS(=O)(=O)c1ccc([C@H](CO)NC(=O)c2ccc3c(OC4CCN(CC(F)(F)F)CC4)nc(C)cc3c2)cc1` [Hy1A-17, (R)-N-(1-(4-(ethylsulfonyl)phenyl)-2-hydroxyethyl)-3-methyl-1-((1-(2,2,2-trifluoroethyl)piperidin-4-yl)oxy)isoquinoline-6-carboxamide], the IC50 in assay [1] was over 1000 nM. The Ki in assay [2] (setting [3]) is under 100 nM.
As for `CCS(=O)(=O)c1ccc([C@H](CO)NC(=O)c2ccc3c(OCC4CCN(CC(F)(F)F)CC4)nc(C)cc3c2)cc1` [Hy1A-19, (R)-N-(1-(4-(ethylsulfonyl)phenyl)-2-hydroxyethyl)-3-methyl-1-((1-(2,2,2-trifluoroethyl)piperidin-4-yl)methoxy)isoquinoline-6-carboxamide], in assay [1], the IC50 lay within 100 to 1000 nM. Further, the Ki in assay [2] (setting [3]) was under 100 nM.
For `CCc1cc2cc(C(=O)NCc3ccc(S(=O)(=O)CC)cc3)ccc2c(OC[C@H]2CC[C@H](C(F)(F)F)CC2)n1` [Hy1A-20, 3-ethyl-N-(4-(ethylsulfonyl)benzyl)-1-(((1r,4r)-4-(trifluoromethyl)cyclohexyl)methoxy)isoquinoline-6-carboxamide], in that order: under 100 nM and under 100 nM.
For `CCS(=O)(=O)c1ccc([C@H](CO)NC(=O)c2ccc3c(OC[C@H]4CC[C@H](C(F)(F)F)CC4)nc(C4CC4)cc3c2)cc1` [Hy1A-21, 3-cyclopropyl-N-((R)-1-(4-(ethylsulfonyl)phenyl)-2-hydroxyethyl)-1-(((1r,4R)-4-(trifluoromethyl)cyclohexyl)methoxy)isoquinoline-6-carboxamide], in that order: under 100 nM and under 100 nM.
In the case of `CCS(=O)(=O)c1ccc([C@H](CO)NC(=O)c2ccc3c(OC[C@H]4CC[C@H](C(F)(F)F)CC4)nc(OC)cc3c2)cc1` [Hy1A-23, N-((R)-1-(4-(ethylsulfonyl)phenyl)-2-hydroxyethyl)-3-methoxy-1-(((1r,4R)-4-(trifluoromethyl)cyclohexyl)methoxy)isoquinoline-6-carboxamide], the IC50 in assay [1] is under 100 nM. Moreover, the Ki in assay [2] (setting [3]) was under 100 nM.
In the case of `CCS(=O)(=O)c1ccc([C@H](CO)NC(=O)c2ccc3c(COc4ccc(C(F)(F)F)cc4)nccc3c2)cc1` [Hy1A-24, (R)-N-(1-(4-(ethylsulfonyl)phenyl)-2-hydroxyethyl)-1-((4-(trifluoromethyl)phenoxy)methyl)isoquinoline-6-carboxamide], in assay [1], the IC50 was in the range of 100 to 1000 nM. For the same compound, the Ki in assay [2] (setting [3]) is under 100 nM.
For `CCS(=O)(=O)c1ccc([C@H](CO)NC(=O)c2ccc3c(OCc4ccc(C(F)(F)F)cc4)cc(C)nc3c2)cc1` [Hy1B-3, (R)-N-(1-(4-(ethylsulfonyl)phenyl)-2-hydroxyethyl)-2-methyl-4-((4-(trifluoromethyl)benzyl)oxy)quinoline-7-carboxamide], in that order: 100 to 1000 nM and under 100 nM.
With `CCS(=O)(=O)c1ccc(CNC(=O)c2ccc3c(c2)CCN(c2ncc(C(F)(F)F)cn2)C3C(C)C)cc1` (stereo not shown) [Hy2A-2, N-(4-(ethylsulfonyl)benzyl)-1-isopropyl-2-(5-(trifluoromethyl)pyrimidin-2-yl)-1,2,3,4-tetrahydroisoquinoline-6-carboxamide], the IC50 in assay [1] was over 1000 nM. In addition, the Ki in assay [2] (setting [3]) lay within 100 to 1000 nM.
For `CCS(=O)(=O)c1ccc(CNC(=O)c2ccc3c(c2)CCN(c2nccc(C(F)(F)F)n2)C3C(C)C)cc1` (stereo not shown) [Hy2A-3, N-(4-(ethylsulfonyl)benzyl)-1-isopropyl-2-(4-(trifluoromethyl)pyrimidin-2-yl)-1,2,3,4-tetrahydroisoquinoline-6-carboxamide], in that order: over 1000 nM and under 100 nM.
For `CCS(=O)(=O)c1ccc(CNC(=O)c2ccc3c(c2)CCN(CC2CCN(C(=O)OC)CC2)[C@H]3C(C)C)cc1` [Hy2A-24, methyl (S)-4-((6-((4-(ethylsulfonyl)benzyl)carbamoyl)-1-isopropyl-3,4-dihydroisoquinolin-2(1H)-yl)methyl)piperidine-1-carboxylate], in that order: 100 to 1000 nM and 100 to 1000 nM.
For `CCS(=O)(=O)c1ccc([C@H](CO)NC(=O)c2ccc3c(C4CC4)n(C[C@H]4CC[C@H](C(F)(F)F)CC4)nc3c2)cc1` [Hy3A-1, 3-cyclopropyl-N-((R)-1-(4-(ethylsulfonyl)phenyl)-2-hydroxyethyl)-2-(((1r,4R)-4-(trifluoromethyl)cyclohexyl)methyl)-2H-indazole-6-carboxamide], in that order: under 100 nM and under 100 nM.
Regarding `CCS(=O)(=O)c1ccc(CNC(=O)c2ccc3c(C4CC4)n(C[C@H]4CC[C@H](C(F)(F)F)CC4)nc3c2)cc1` [Hy3A-2, 3-cyclopropyl-N-(4-(ethylsulfonyl)benzyl)-2-(((1r,4r)-4-(trifluoromethyl)cyclohexyl)methyl)-2H-indazole-6-carboxamide], the IC50 in assay [1] is under 100 nM. Also, the Ki in assay [2] (setting [3]) is under 100 nM.
As for `CCS(=O)(=O)c1ccc(CNC(=O)c2ccc3c(C4CC4)n(C[C@H]4CC[C@H](C(F)(F)F)CC4)nc3c2)nc1` [Hy3A-3, 3-cyclopropyl-N-((5-(ethylsulfonyl)pyridin-2-yl)methyl)-2-(((1r,4r)-4-(trifluoromethyl)cyclohexyl)methyl)-2H-indazole-6-carboxamide], the IC50 in assay [1] is under 100 nM. Moreover, the inhibition constant Ki in assay [2] (setting [3]) was under 100 nM.
As to `CCS(=O)(=O)c1ccc([C@H](CO)NC(=O)c2ccc3c(C4CC4)n(Cc4ccc(C(F)(F)F)cc4)nc3c2)cc1` [Hy3A-4, (R)-3-cyclopropyl-N-(1-(4-(ethylsulfonyl)phenyl)-2-hydroxyethyl)-2-(4-(trifluoromethyl)benzyl)-2H-indazole-6-carboxamide], the IC50 in assay [1] was under 100 nM. Also, in assay [2] (setting [3]), the Ki was under 100 nM.
Consider `CCc1c2ccc(C(=O)N[C@@H](CO)c3ccc(S(=O)(=O)CC)cc3)cc2nn1C[C@H]1CC[C@H](C(F)(F)F)CC1` [Hy3A-5, 3-ethyl-N-((R)-1-(4-(ethylsulfonyl)phenyl)-2-hydroxyethyl)-2-(((1r,4R)-4-(trifluoromethyl)cyclohexyl)methyl)-2H-indazole-6-carboxamide], for which the IC50 in assay [1] is under 100 nM. Besides, in assay [2] (setting [3]), the Ki was under 100 nM.
Consider `CCS(=O)(=O)c1ccc([C@H](CO)NC(=O)c2ccc3c(C4CC4)n(C[C@H]4CC[C@H](C(F)(F)F)CC4)nc3c2)nc1` [Hy3A-6, 3-cyclopropyl-N-((R)-1-(5-(ethylsulfonyl)pyridin-2-yl)-2-hydroxyethyl)-2-(((1r,4R)-4-(trifluoromethyl)cyclohexyl)methyl)-2H-indazole-6-carboxamide], for which the IC50 in assay [1] is under 100 nM. Further, the inhibition constant (Ki) in assay [2] (setting [3]) was under 100 nM.
As for `CCS(=O)(=O)c1ccc([C@H](CO)NC(=O)c2ccc3c(C4CC4)n(Cc4ccc(C(F)(F)F)cc4)nc3c2)nc1` [Hy3A-7, (R)-3-cyclopropyl-N-(1-(5-(ethylsulfonyl)pyridin-2-yl)-2-hydroxyethyl)-2-(4-(trifluoromethyl)benzyl)-2H-indazole-6-carboxamide], in assay [1], the IC50 is under 100 nM. Moreover, in assay [2] (setting [3]), the Ki was under 100 nM.
In the case of `CCS(=O)(=O)c1ccc([C@H](CO)NC(=O)c2cnc3c(C4CC4)n(C[C@H]4CC[C@H](C(F)(F)F)CC4)nc3c2)cc1` [Hy3B-1, 3-cyclopropyl-N-((R)-1-(4-(ethylsulfonyl)phenyl)-2-hydroxyethyl)-2-(((1r,4R)-4-(trifluoromethyl)cyclohexyl)methyl)-2H-pyrazolo[4,3-b]pyridine-6-carboxamide], the IC50 in assay [1] is under 100 nM. The Ki in assay [2] (setting [3]) was under 100 nM.
As for `CCS(=O)(=O)c1ccc(CNC(=O)c2cnc3c(C4CC4)n(C[C@H]4CC[C@H](C(F)(F)F)CC4)nc3c2)cc1` [Hy3B-2, 3-cyclopropyl-N-(4-(ethylsulfonyl)benzyl)-2-(((1r,4r)-4-(trifluoromethyl)cyclohexyl)methyl)-2H-pyrazolo[4,3-b]pyridine-6-carboxamide], the IC50 in assay [1] is under 100 nM. Moreover, the Ki in assay [2] (setting [3]) is under 100 nM.
As to `CCS(=O)(=O)c1ccc(CNC(=O)c2cc3ccnc(OC[C@H]4CC[C@H](C(F)(F)F)CC4)c3n2C)cc1` [Hy4-1, N-(4-(ethylsulfonyl)benzyl)-1-methyl-7-(((1r,4r)-4-(trifluoromethyl)cyclohexyl)methoxy)-1H-pyrrolo[2,3-c]pyridine-2-carboxamide], in assay [1] (setting [4]), the IC50 fell in the range of 100 to 1000 nM. In assay [2] (setting [4]), the Ki is under 100 nM.
